Assay [1] has as its target T1, human serotonin transporters (Homo sapiens, UniProt P31645).
T1 construct: expressed in transfected cells; membrane homogenates
The assay is described as follows: Serotonin Transporter Binding Assay ([3H]-citalopram displacement, HEK-hSERT cell membranes). The note with it: 1 nM [3H]-citalopram, 1 hr at 25° C. How it is done: HEK-293 cells that stably express human serotonin transporters (HEK-hSERT cells) were grown at 37° C. in 5% CO2 as a monolayer in medium consisting of EMEM supplemented with 10% fetal bovine serum and G418 sulfate (500 μg/mL). […] Cells were transferred from plates to polypropylene tubes (16×100 mm), centrifuged at 1,200×g for 5 min and were frozen at −80° C. until assay. Following centrifugation, pellets were resuspended by homogenization in buffer consisting of 50 mM Tris (pH 7.7 at 25° C.), 120 mM NaCl and 5 mM KCl and then centrifuged at 32,000×g for 10 min. Following centrifugation, supernatants were discarded and pellets were resuspended in buffer consisting of 50 mM Tris (pH 7.4 at 25° C.), 150 mM NaCl and 5 mM KCl. Membrane homogenates (200 μl/plate) were incubated with 1 nM [^3H]-citalopram (specific activity=85 Ci/mMol) and increasing concentrations of test compounds for 1 hr at 25° C. in a total volume of 250 μl. The assay buffer consisted of 50 mM Tris (pH 7.4 at 25° C.), 120 mM NaCl and 5 mM KCl (pH 7.4 with conc. HCl). Plates were incubated for 1 hr at 25° C., then filtered through 0.5% PEI treated Whatman GF/B filters using a Brandel cell harvester. Filters were washed three times with 3 mL of ice-cold tris wash buffer. Non-specific binding was defined with 10 μM fluoxetine. Amount of radioligand bound in the presence and absence of competitor was analyzed by plotting (−)log drug concentration versus the amount of radioligand specifically bound. The midpoint of the displacement curve (IC50, nM), signifies the potency.

Assay [2] concerns the target T2, human norepinephrine transporters (Homo sapiens, UniProt P23975).
T2 construct: the text also calls them 'HEK-hNET cells'); membrane homogenates
The assay is described as follows: Norepinephrine Transporter Binding Assay ([3H]-nisoxetine displacement, hNET cell membranes). The note with it: 2.7 nM [3H]-nisoxetine, 1 hr at 4° C., read-out: NE reuptake binding Ki. As to the method: MDCK cells that stably express human norepinephrine transporters (HEK-hNET cells) were supplied by Receptor Biology, Inc. Pellets were resuspended by homogenization in buffer consisting of 50 mM Tris (pH 7.4 at 25° C.), 120 mM NaCl and 5 mM KCl. Membrane homogenates (200 μl/well, 8 ug protein) were incubated with 2.7 nM [^3H]-nisoxetine (specific activity=80 Ci/mMol) and increasing concentrations of test compounds for 1 hr at 4° C. in a total volume of 250 μl. The assay buffer consisted of 50 mM Tris (pH 7.4 at 25° C.), 120 mM NaCl and 5 mM KCl (pH 7.4 with conc. HCl). Plates were incubated for 1 hr at 4° C., then filtered through 0.5% PEI treated Whatman GF/B filters using a Brandel cell harvester. Filters were washed three times with 3 mL of ice-cold tris wash buffer. Non-specific binding was defined with 10 μM desipramine. Amount of radioligand bound in the presence and absence of competitor was analyzed by plotting (−)log drug concentration versus the amount of radioligand specifically bound. The midpoint of the displacement curve (IC50, nM), signifies the potency. Ki values were calculated using the method of Cheng and Prusoff (1973).

The mark [3] stands for this setting: read-out: 5-HT reuptake binding Ki.

Read-outs that look alike come from different tables or passages of the source.

T2 sequence (P23975 whole entry): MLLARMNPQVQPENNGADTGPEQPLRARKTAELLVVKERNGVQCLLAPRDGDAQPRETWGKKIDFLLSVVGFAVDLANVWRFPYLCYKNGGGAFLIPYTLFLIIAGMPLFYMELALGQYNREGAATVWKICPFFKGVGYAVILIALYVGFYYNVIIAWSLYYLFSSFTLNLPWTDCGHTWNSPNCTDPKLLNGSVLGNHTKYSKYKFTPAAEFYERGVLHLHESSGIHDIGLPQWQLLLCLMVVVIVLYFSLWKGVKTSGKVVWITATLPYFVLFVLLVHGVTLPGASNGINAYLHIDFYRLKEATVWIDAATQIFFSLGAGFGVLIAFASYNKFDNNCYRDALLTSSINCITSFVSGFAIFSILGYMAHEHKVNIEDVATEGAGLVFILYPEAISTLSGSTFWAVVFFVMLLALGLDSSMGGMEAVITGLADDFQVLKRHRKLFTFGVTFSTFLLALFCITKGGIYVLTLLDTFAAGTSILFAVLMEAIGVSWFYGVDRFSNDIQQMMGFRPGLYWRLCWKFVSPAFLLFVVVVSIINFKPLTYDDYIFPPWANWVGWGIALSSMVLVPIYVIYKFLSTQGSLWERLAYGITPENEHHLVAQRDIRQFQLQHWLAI
T1 sequence (P31645 whole entry): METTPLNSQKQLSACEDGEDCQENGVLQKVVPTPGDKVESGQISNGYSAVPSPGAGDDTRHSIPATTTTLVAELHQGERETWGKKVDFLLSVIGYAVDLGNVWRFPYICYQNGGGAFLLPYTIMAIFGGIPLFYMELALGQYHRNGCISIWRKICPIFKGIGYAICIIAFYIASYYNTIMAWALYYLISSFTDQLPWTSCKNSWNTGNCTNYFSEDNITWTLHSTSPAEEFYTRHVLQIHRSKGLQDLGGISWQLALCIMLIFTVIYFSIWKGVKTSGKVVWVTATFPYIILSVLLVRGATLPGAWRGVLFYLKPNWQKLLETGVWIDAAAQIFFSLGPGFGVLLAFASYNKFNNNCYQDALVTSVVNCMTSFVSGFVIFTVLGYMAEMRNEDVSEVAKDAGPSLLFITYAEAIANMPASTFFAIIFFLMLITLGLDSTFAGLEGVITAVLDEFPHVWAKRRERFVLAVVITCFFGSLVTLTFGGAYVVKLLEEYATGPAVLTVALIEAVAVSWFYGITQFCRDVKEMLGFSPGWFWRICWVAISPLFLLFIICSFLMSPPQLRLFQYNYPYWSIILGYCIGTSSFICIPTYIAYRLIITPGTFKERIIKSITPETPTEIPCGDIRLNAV

As a reminder, the Ki is the dissociation constant of the complex between target and ligand, obtained from inhibition or displacement. For the molecule `CCN(CC)C[C@H]1CCC[C@@H]1c1c[nH]c2ccc(C#N)cc12` (relative stereo) [Example 28, Trans-3-(2-diethylaminomethyl-cyclopentyl)-1H-indole-5-carbonitrile], the Ki in assay [1] (5-HT reuptake binding Ki) is 100 to 500 nM; in assay [2], > 1000 nM.
In the case of `CN(Cc1ccccc1)C[C@H]1CCC[C@@H]1c1ccc2[nH]cc(C#N)c2c1` (relative stereo) [Example 40, Trans-5-{2-[(benzyl-methyl-amino)-methyl]-cyclopentyl}-1H-indole-3-carbonitrile], the Ki is 10 to 100 nM in assay [1] (setting [3]) and > 1000 nM in assay [2].
As to `CCn1cc([C@H]2CCC[C@@H]2CN(C)C)c2cc(C#N)ccc21` (relative stereo) [Example 33, Trans-3-(2-dimethylaminomethyl-cyclopentyl)-1-ethyl-1H-indole-5-carbonitrile], the inhibition constant Ki in assay [1] (setting [3]) is 1 to 10 nM; in assay [2], > 1000 nM.
As to `CN(C)C[C@@H]1CCC[C@H]1c1c[nH]c2ccc(C#N)cc12` (single isomer, unassigned; enantiomer a) [Example 44], the inhibition constant (Ki) is 10 to 100 nM in assay [1] (5-HT reuptake binding Ki) and > 1000 nM in assay [2].
As to `CNC[C@@H]1CCC[C@@H]1c1ccc2[nH]cc(C#N)c2c1` (relative stereo) [Example 42, Cis-5-(methylaminomethyl-cyclopentyl)-1H-indole-3-carbonitrile], the results for the inhibition constant (Ki) in assay [1] (setting [3]) and in assay [2] were 10 to 100 nM and 100 to 500 nM, respectively.
As for `CN(Cc1ccccc1)C1CCCC1Cc1c[nH]c2ccc(C#N)cc12` (stereo not shown) [Example 60, 3-[2-(Benzyl-methyl-amino)-cyclopentylmethyl]-1H-indole-5-carbonitrile], in assay [1] (setting [3]), the Ki lay within 10 to 100 nM.
Still for that read-out and setting: to `CN(C)C1CCCC1Cc1c[nH]c2ccc(C#N)cc12` (mixture of isomers) [Example 54, 3-(2-Dimethylamino-cyclopentylmethyl)-1H-indole-5-carbonitrile] belongs 1 to 10 nM.
As for `CCN(C)C[C@H]1CCC[C@@H]1c1ccc2[nH]cc(C#N)c2c1` (relative stereo) [Example 38, Trans-5-{2-[(ethyl-methyl-amino)-methyl]-cyclopentyl}-1H-indole-3-carbonitrile], the inhibition constant Ki in assay [1] (setting [3]) was 100 to 500 nM; in assay [2], > 1000 nM.
With `CCC([C@H]1CCC[C@@H]1c1c[nH]c2ccc(C#N)cc12)N(C)C` (mixture of isomers) [Example 51, (+/−) trans-3-[2-(1-dimethylaminopropyl)cyclopentyl]-1H-indole-5-carbonitrile,diastereomer B], the Ki in assay [1] (setting [3]) lay within 100 to 500 nM.
As for `CCC([C@H]1CCC[C@@H]1c1c[nH]c2ccc(C#N)cc12)N(C)C` (mixture of isomers) [Example 50, (+/−) trans-3-[2-(1-dimethylaminopropyl)cyclopentyl]-1H-indole-5-carbonitrile,diastereomer A], in assay [1] (setting [3]), the Ki was 10 to 100 nM.
Turning to `CNC[C@H]1CCC[C@@H]1c1c[nH]c2ccc(C#N)cc12` (relative stereo) [Example 26, Trans-3-(2-methylaminomethyl-cyclopentyl)-1H-indole-5-carbonitrile], the inhibitory constant (Ki) in assay [1] (setting [3]) was 1 to 10 nM; in assay [2], > 1000 nM.
Regarding `CCNC[C@H]1CCC[C@@H]1c1c[nH]c2ccc(C#N)cc12` (relative stereo) [Example 27, Trans-3-(2-ethylaminomethyl-cyclopentyl)-1H-indole-5-carbonitrile], the Ki in assay [1] (5-HT reuptake binding Ki) was 10 to 100 nM; in assay [2], > 1000 nM.
As to `CCN(C)C[C@H]1CCC[C@@H]1c1c[nH]c2ccc(C#N)cc12` (relative stereo) [Example 29, Trans-3-{2-[(ethyl-methyl-amino)-methyl]-cyclopentyl}-1H-indole-5-carbonitrile], the inhibition constant Ki in assay [1] (5-HT reuptake binding Ki) was 1 to 10 nM; in assay [2], > 1000 nM.
Turning to `N#Cc1ccc2[nH]cc(CC3CCCC3N3CCCC3)c2c1` (stereo not shown) [Example 59, 3-(2-Pyrrolidin-1-yl-cyclopentylmethyl)-1H-indole-5-carbonitrile], the Ki in assay [1] (setting [3]) is 1 to 10 nM.
For the molecule `N#Cc1c[nH]c2ccc([C@H]3CCC[C@@H]3CN3CCCC3)cc12` (relative stereo) [Example 36, Trans-5-(2-pyrrolidin-1-ylmethyl-cyclopentyl)-1H-indole-3-carbonitrile], the figures for the Ki in assay [1] (setting [3]) and in assay [2] were 100 to 500 nM and > 1000 nM, respectively.
`CC([C@H]1CCCC1c1c[nH]c2ccc(C#N)cc12)N(C)C` (single isomer, unassigned) [Example 48]: the inhibition constant Ki in assay [1] (setting [3]) fell in the range of 10 to 100 nM.
With `CN(C)C[C@H]1CCC[C@@H]1c1c[nH]c2ccc(C#N)cc12` (single isomer, unassigned; enantiomerb) [Example 45], the inhibition constant Ki in assay [1] (5-HT reuptake binding Ki) is < 1 nM; in assay [2] it was > 1000 nM.
As for `N#Cc1ccc2[nH]cc([C@H]3CCC[C@@H]3CN3CCCC3)c2c1` (relative stereo) [Example 30, Trans-3-(pyrrolidin-1-ylmethyl-cyclopentyl)-1H-indole-5-carbonitrile], the values for the Ki in assay [1] (5-HT reuptake binding Ki) and in assay [2] were 1 to 10 nM and > 1000 nM, respectively.
On to `CC([C@H]1CCCC1c1c[nH]c2ccc(C#N)cc12)N(C)C` (single isomer, unassigned; diastereomer a) [Example 46, (+/−) trans-3-[2-(1-dimethylaminoethyl)cyclopentyl]-1H-indole-5-carbonitrile,diastereomer A], for which the Ki in assay [1] (5-HT reuptake binding Ki) was < 1 nM; in assay [2], > 1000 nM.
Regarding `CC([C@H]1CCCC1c1c[nH]c2ccc(C#N)cc12)N(C)C` (single isomer, unassigned; diastereomer b) [Example 47, (+/−) trans-3-[2-(1-dimethylaminoethyl)cyclopentyl]-1H-indole-5-carbonitrile,diastereomer B], in assay [1] (setting [3]), the inhibition constant (Ki) is 1 to 10 nM.
As to `CCNC1CCCC1Cc1c[nH]c2ccc(C#N)cc12` (stereo not shown) [Example 56, 3-(2-Ethylamino-cyclopentylmethyl)-1H-indole-5-carbonitrile], in assay [1] (setting [3]), the inhibition constant (Ki) fell in the range of 1 to 10 nM.
In the case of `CN(C)C[C@@H]1CCC[C@@H]1c1ccc2[nH]cc(C#N)c2c1` (relative stereo) [Example 43, Cis-5-(dimethylaminomethyl-cyclopentyl)-1H-indole-3-carbonitrile], in assay [1] (setting [3]), the Ki lay within 1 to 10 nM.
With `CCN(C)C1CCCC1Cc1c[nH]c2ccc(C#N)cc12` (stereo not shown) [Example 58, 3-[2-(Ethyl-methyl-amino)-cyclopentylmethyl]-1H-indole-5-carbonitrile], the inhibitory constant (Ki) in assay [1] (setting [3]) was 1 to 10 nM.
Consider `CCNC[C@H]1CCC[C@@H]1c1ccc2[nH]cc(C#N)c2c1` (relative stereo) [Example 37, Trans-5-(ethylaminomethyl-cyclopentyl)-1H-indole-3-carbonitrile], for which the results for the inhibition constant Ki in assay [1] (setting [3]) and in assay [2] were 100 to 500 nM and > 1000 nM, respectively.
Regarding `CN(C)C[C@H]1CCC[C@@H]1c1ccc2c(c1)c(C#N)cn2C` (relative stereo) [Example 41, Trans-5-(2-dimethylaminomethyl-cyclopentyl)-1-methyl-1H-indole-3-carbonitrile], the Ki is 100 to 500 nM in assay [1] (setting [3]) and > 1000 nM in assay [2].
As to `CNC[C@H]1CCC[C@@H]1c1ccc2[nH]cc(C#N)c2c1` (relative stereo) [Example 35, Trans-5-(2-methylaminomethyl-cyclopentyl)-1H-indole-3-carbonitrile], the inhibition constant Ki is 1 to 10 nM in assay [1] (setting [3]) and > 1000 nM in assay [2].
`CCN(CC)C1CCCC1Cc1c[nH]c2ccc(C#N)cc12` (stereo not shown) [Example 57, 3-(2-Diethylamino-cyclopentylmethyl)-1H-indole-5-carbonitrile]: in assay [1] (setting [3]), the inhibition constant (Ki) fell in the range of 10 to 100 nM.
Same read-out and setting: for `CN(C)C[C@H]1CCC[C@@H]1c1c[nH]c2ccc(I)cc12` [Example 52, (1S,2S)-[2-(5-iodo-1H-indol-3-yl)-cyclopentylmethyl]-dimethylamine] the value was 10 to 100 nM; for `CNC1CCCC1Cc1c[nH]c2ccc(C#N)cc12` (stereo not shown) [Example 55, 3-(2-Methylamino-cyclopentylmethyl)-1H-indole-5-carbonitrile], 1 to 10 nM.
`CC([C@H]1CCCC1c1c[nH]c2ccc(C#N)cc12)N(C)C` (single isomer, unassigned) [Example 49]: the Ki in assay [1] (setting [3]) is < 1 nM.

The record behind these values is patent publication US7105516B2, “Compounds for the treatment of premature ejaculation” (Bristol-Myers Squibb Company, priority 2002, dated 2006).
